For test [1], the system named is rat uterine cytosol estrogen receptor. Nature of the test: competition binding on rat uterine cytosol estrogen receptor with [3H]estradiol. The conditions noted are these: incubation at 25° C. for 3 hours; [3H]estradiol competition. How it is done: FIG. 1 illustrates a competition binding assay of the affinity of estradiol, diethylstilbestrol, ICI 164384 (Wakeling A. E. and Bowler J., 1987; J. Endocr. 112, R7-R10) and EM-142 (an antiestrogen in accordance with the invention synthesized in example 1, herein) for the rat uterine cytosol receptor (Asselin et al., 1978; J. Steroid Biochem. 9:1079-1082).
EM-142 from example 1 was tested by competition binding on the rat uterine cytosol estrogen receptor with [^3 H]estradiol according to Asselin et al. (1976) procedure. […] (Incubation was performed at 25° C. for 3 hours).

Test [2] relates to estradiol-induced stimulation of uterine weight. In words: inhibition of estradiol-induced stimulation of uterine weight in ovariectomized mice. The class given is in vivo, Balb/c mice. How it is done:
FIG. 2 illustrates the effect of the indicated doses of EM-142 injected twice daily (b.i.d.) on uterine weight (mg) in adult female ovariectomized Balb/C mice treated for 4.5 days in the presence or absence of simultaneous treatment with 17β-estradiot (0.01 μg, b.i.d.). […] EM-142, and/or estradiol contained in ethanol were injected subcutaneously in the appropriate groups in a solution of 0.9% (w/v) sodium chloride and 1% (w/v) gelatin at different concentrations in 0.2 ml for EM-142, twice daily, starting on the day of ovariectomy for a total of 9 injections. Estradiol was injected at the dose of 0.01 μg in 0.2 ml, twice daily, starting on the morning after ovariectomy for a total of 8 injections. After sacrifice, the uteri were rapidly removed, freed from fat and connective tissue and weighted. Results shown in FIG. 2 are the means ± SEM of groups of 9-10 mice.

A further test relates to advanced breast cancer. The settings on record: cited from earlier work.

Turning to `CCCCN(C)C(=O)CCCCCCCCCCC(=C(CC)c1ccc(O)cc1)c1ccc(O)cc1` [EM-142, N-butyl,N-methyl-12,13-Bis (4-hydroxyphenyl)-12-pentadecenoic amide], in test [1], the “binding potency compared with ICI 164384” value is listed as “more potent than the antiestrogen ICI 164384” and the “binding potency relative to 17β-estradiol (times less potent)” value amounted to 3 times. In test [2] (0.3 μg s.c. twice daily, 9 injections, estradiol 0.01 μg b.i.d.), the “effect on E2-induced uterine growth at 0.3 μg” value is “significant inhibitory effect”. In test [2] (20 μg s.c. twice daily, 9 injections, estradiol 0.01 μg b.i.d.), the “effect on estrogenic action at 20 μg” value was “complete reversal of estrogenic action”. Also, in test [2] (EM-142 in absence of estradiol, s.c. twice daily), the “estrogenic (agonistic) effect on uterine weight” value is “no estrogenic effect on uterine weight”. The “dose giving half-maximal inhibitory effect on E2-induced uterine growth” value in test [2] (s.c. twice daily, 9 injections, estradiol 0.01 μg b.i.d.) is given as “approximately 3 μg”.
`CC/C(=C(\c1ccccc1)c1ccc(OCCN(C)C)cc1)c1ccccc1` [Tamoxifen]: the “women patients treated with remission of advanced breast cancer” value with advanced breast cancer was “about 30%”.

(Values after patent publication US5393785A, “Therapeutic antiestrogens” (Endorecherche, Inc., priority 1992, dated 1995).)
